Test results published in patent publication US20240317727A1 (Duke University, priority 2018, published 2024).

How the values were obtained:
[1] = test system: Hsp27, Hsp70, Hsp90 and p23; test: Chaperone protein levels in C4-2 cells, immunoblot; format: cell-based, human; settings: FIG. 4A/4B
SNB-19 = test: NCI60 cell growth and viability: SNB-19; format: cell-based; settings: SNB-19, CNS Cancer, two days
DU-145 = test: NCI60 cell growth and viability: DU-145; format: cell-based; settings: DU-145, Prostate Cancer, two days
MDA-MB-435 = test: NCI60 cell growth and viability: MDA-MB-435; format: cell-based; settings: MDA-MB-435, Melanoma, two days
SK-MEL-28 = test: NCI60 cell growth and viability: SK-MEL-28; format: cell-based; settings: SK-MEL-28, Melanoma, two days
IGROV1 = test: NCI60 cell growth and viability: IGROV1; format: cell-based; settings: IGROV1, Ovarian Cancer, two days
A498 = test: NCI60 cell growth and viability: A498; format: cell-based; settings: A498, Renal Cancer, two days
HCT-116 = test: NCI60 cell growth and viability: HCT-116; format: cell-based; settings: HCT-116, Colon Cancer, two days
MALME-3M = test: NCI60 cell growth and viability: MALME-3M; format: cell-based; settings: Melanoma, two days
[2] = Homo sapiens, 48 h, read-out: log10 [GI50 (M)] (converted)
[3] = Homo sapiens, 48 h, read-out: log10 [LC50 (M)] (converted)

With `O=C(Nc1ccc(F)cc1)Nc1ccc(Cl)c([N+](=O)[O-])c1` [Compound 0017, 1-(4-chloro-3-nitrophenyl)-3-(4-fluorophenyl)urea] as the compound, how does the “steady-state protein level of Hsp27, Hsp70, Hsp90 and p23” value [1] read?
The value was “dose-dependently reduced”.

And the GI50 (SNB-19; [2])?
Its GI50 is 3.55e-06 M.

And the CC50 (SNB-19; [3])?
The CC50 was 4.68e-05 M.

And the “log10 [TGI (M)]” value (SNB-19)?
The value was −4.84 log10 M.

What about the “log10 [TGI (M)]” value (DU-145) of the same compound?
Its value is −4.67 log10 M.

And the GI50 (DU-145; [2])?
The GI50 was 4.47e-06 M.

What about the CC50 (DU-145; [3]) of the same compound?
Its CC50 is ≥ 0.0001 M.

What about the GI50 (MDA-MB-435; [2]) of the same compound?
Its GI50 is 3.09e-06 M.

And the CC50 (MDA-MB-435; [3])?
Its CC50 is 4.37e-05 M.

And the “log10 [TGI (M)]” value (MDA-MB-435)?
Its value is −4.94 log10 M.

What about the GI50 (SK-MEL-28; [2]) of the same compound?
The GI50 was 3.8e-06 M.

What about the CC50 (SK-MEL-28; [3]) of the same compound?
Its CC50 is 3.8e-05 M.

And the “log10 [TGI (M)]” value (SK-MEL-28)?
Its value is −4.85 log10 M.

And the GI50 (IGROV1; Homo sapiens, IGROV-1, 48 h, read-out: log10 [GI50 (M)] (converted))?
The GI50 was 4.79e-06 M.

And the CC50 (IGROV1; Homo sapiens, IGROV-1, 48 h, read-out: log10 [LC50 (M)] (converted))?
Its CC50 is 7.41e-05 M.

And the “log10 [TGI (M)]” value (IGROV1)?
Its value is −4.73 log10 M.

What about the “log10 [TGI (M)]” value (A498) of the same compound?
Its value is −5.24 log10 M.

And the GI50 (A498; [2])?
The GI50 was 1.82e-06 M.

What about the CC50 (A498; [3]) of the same compound?
Its CC50 is 2.34e-05 M.

And the “log10 [TGI (M)]” value (HCT-116)?
Its value is −4.93 log10 M.

What about the GI50 (HCT-116; [2]) of the same compound?
Its GI50 is 3.09e-06 M.

And the CC50 (HCT-116; [3])?
Its CC50 is 3.47e-05 M.

And the GI50 (MALME-3M; [2])?
The GI50 was 2.34e-06 M.

What about the CC50 (MALME-3M; [3]) of the same compound?
Its CC50 is 2.95e-05 M.

What about the “log10 [TGI (M)]” value (MALME-3M) of the same compound?
The value was −5.14 log10 M.
